Active and inactive are the calls of the source. The calls are words filed in the database; no cut-off is given here.
Legend:
Phytophthora cactorum [1] = test: Effect on Phytophthora cactorum growth assessed as colony diameter at 10 mg/L after 6 days in solid culture medium; assay type: functional
Phytophthora cactorum [2] = test: Antifungal activity against Phytophthora cactorum at 10 mg/L in liquid culture medium; assay type: functional, organism-based
Phytophthora cactorum [3] = test: Growth promotion activity in Phytophthora cactorum at 10 mg/L in liquid culture medium; assay type: functional, organism-based
Phytophthora cactorum [4] = test: Growth promotion activity of Phytophthora cactorum assessed as mycelial dry weight at 10 mg/L after 12 days in liquid culture medium; assay type: functional
Phytophthora cactorum [5] = test: Growth promotion activity of Phytophthora cactorum assessed as mycelial dry weight at 10 mg/L after 18 days in liquid culture medium; assay type: functional

## C=C(C)[C@@H]1CC[C@]2(C)CC[C@]3(C)[C@H](CC[C@@H]4[C@@]5(C)CC[C@H](O)C(C)(C)[C@@H]5CC[C@]43C)[C@@H]12 [LUPEOL]
Phytophthora cactorum [1]
  Activity: 29.5 mm

## CC(=O)OC(C)(C)/C=C/C(=O)[C@](C)(O)[C@H]1[C@H](O)C[C@@]2(C)[C@@H]3CC=C4[C@H](C[C@H](O)C(=O)C4(C)C)[C@]3(C)C(=O)C[C@]12C
Phytophthora cactorum [2]
  Activity: Active

## C[C@H]1[C@H](C)CC[C@]2(C)CC[C@]3(C)C(=CC[C@@H]4[C@@]5(C)CC[C@H](O)C(C)(C)[C@@H]5CC[C@]43C)[C@H]12
Phytophthora cactorum [3]
  Activity: Active

## C=C(C)[C@H]1CC[C@]2(C)[C@H]3CC[C@@H]4[C@@]5(C)CCCC(C)(C)[C@@H]5CC[C@@]4(C)[C@]3(C)CC[C@@H]12
Phytophthora cactorum [1]
  Activity: 30 mm
Phytophthora cactorum [2]
  Activity: Active

## C=C(C)[C@@H]1CC[C@]2(CO)CC[C@]3(C)[C@H](CC[C@@H]4[C@@]5(C)CC[C@H](O)C(C)(C)[C@@H]5CC[C@]43C)[C@@H]12 [BETULIN]
Phytophthora cactorum [1]
  Activity: 30.5 mm

## CC(C)[C@H](C)CC[C@@H](C)[C@H]1CC[C@H]2[C@@H]3CC=C4C[C@@H](O)CC[C@]4(C)[C@H]3CC[C@]12C [CAMPESTEROL]
Phytophthora cactorum [4]
  Activity: 125 mg
Phytophthora cactorum [5]
  Activity: 200 mg

## CC(C)CCC[C@@H](C)[C@H]1CC[C@H]2[C@@H]3CC=C4C[C@@H](O)CC[C@]4(C)[C@H]3CC[C@]12C
Phytophthora cactorum [3]
  Activity: Active

## C=C(C)[C@@H]1CC[C@]2(C)CC[C@]3(C)[C@H](CC[C@@H]4[C@@]5(C)CCC(=O)C(C)(C)[C@@H]5CC[C@]43C)[C@@H]12
Phytophthora cactorum [2]
  Activity: Active

## CC(C)=CCC[C@@H](C)[C@H]1CC[C@@]2(C)[C@@H]3CC[C@H]4C(C)(C)[C@@H](O)CC[C@@]45C[C@@]35CC[C@]12C [CYCLOARTENOL]
Phytophthora cactorum [1]
  Activity: 31 mm

## C[C@H]1C(=O)CC[C@@H]2[C@]1(C)CC[C@H]1[C@@]2(C)CC[C@@]2(C)[C@@H]3CC(C)(C)CC[C@]3(C)CC[C@]12C
Phytophthora cactorum [2]
  Activity: Active

## CC[C@H](CC[C@@H](C)[C@H]1CC[C@H]2[C@@H]3CC=C4C[C@@H](O)CC[C@]4(C)[C@H]3CC[C@]12C)C(C)C [BETA-SITOSTEROL]
Phytophthora cactorum [4]
  Activity: 125 mg
Phytophthora cactorum [1]
  Activity: 35 mm
Phytophthora cactorum [5]
  Activity: 200 mg

## CC(C)=CCC[C@@H](C)[C@H]1CC[C@@]2(C)C3=C(CC[C@]12C)[C@@]1(C)CC[C@H](O)C(C)(C)[C@@H]1CC3 [LANOSTEROL]
Phytophthora cactorum [1]
  Activity: 30.5 mm

## CC(=O)OC(C)(C)/C=C/C(=O)[C@](C)(O)[C@H]1[C@H](O)C[C@@]2(C)[C@@H]3CC=C4[C@@H](C=C(O)C(=O)C4(C)C)[C@]3(C)C(=O)C[C@]12C
Phytophthora cactorum [2]
  Activity: Active

## CC(C)(O)/C=C/C(=O)[C@](C)(O)[C@H]1[C@H](O)C[C@@]2(C)[C@@H]3CC=C4[C@@H](C[C@H](O)C(=O)C4(C)C)[C@]3(C)C(=O)C[C@]12C
Phytophthora cactorum [2]
  Activity: Active

## CC(=O)OC(C)(C)/C=C/C(=O)[C@](C)(O)[C@H]1[C@H](O)C[C@@]2(C)[C@@H]3CC=C4[C@@H](CC[C@@H](O)C4(C)C)[C@]3(CO)C(=O)C[C@]12C [CUCURBITACIN C]
Phytophthora cactorum [1]
  Activity: 28 mm
Phytophthora cactorum [2]
  Activity: Active

## CC1(C)CC[C@]2(C)CC[C@]3(C)C(=CC[C@@H]4[C@@]5(C)CC[C@H](O)C(C)(C)[C@@H]5CC[C@]43C)[C@@H]2C1 [beta-AMYRIN]
Phytophthora cactorum [1]
  Activity: 35 mm
Phytophthora cactorum [5]
  Activity: 135 mg
Phytophthora cactorum [3]
  Activity: Active

## CC1(C)CC[C@]2(C(=O)O)CC[C@]3(C)C(=CC[C@@H]4[C@@]5(C)CC[C@H](O)C(C)(C)[C@@H]5CC[C@]43C)[C@@H]2C1 [OLEANOLIC_ACID]
Phytophthora cactorum [1]
  Activity: 29 mm

## CC(=O)OC(C)(C)/C=C/C(=O)[C@](C)(O)[C@H]1[C@H](O)C[C@@]2(C)[C@@H]3CC=C4[C@@H](C[C@H](O)C(=O)C4(C)C)[C@]3(CO)C(=O)C[C@]12C
Phytophthora cactorum [2]
  Activity: Active

## CC1(C)CCC[C@]2(C)[C@H]3CC[C@@H]4[C@@]5(C)CC[C@H](O)C(C)(C)[C@@H]5CC[C@@]4(C)[C@]3(C)CC[C@@H]12 [TETRAHYMANOL]
Phytophthora cactorum [5]
  Activity: 135 mg
Phytophthora cactorum [3]
  Activity: Active

Source: ChEMBL document CHEMBL1151359, “Effects of Tetracyclic and Pentacyclic Triterpenoids on Growth of Phytophthora cactorum” (1981)
